In patent US20100008898A1, “CHYMOTRYPSIN FROM LUCILIA SERICATA LARVAE AND ITS USE FOR THE TREATMENT OF WOUNDS” (priority 2006, published 2010):

Assays:
[1] = Tryptic activity, release of AMC from fluorescent peptide substrate; format: biochemical; settings: 1.6 μg/ml commercial trypsin vs 5 μg/ml ES
Description: (§1) FIG. 10 is two graphs showing the effect of ES, trypsin, chymotrypsin and trypsin/chymotrypsin mix upon fibroblast cell adhesion to a FN-coated surface, following 24 h incubation, in relation to each enzyme concentration's proteolytic activity. Such activity was assessed by monitoring the release of 7-amino-4-methylcoumarin (AMC) from synthetic peptide substrates for a. trypsin or b. chymotrypsin. Cell adhesion was measured using a firefly luciferase-based luminescent adenosine triphosphate (ATP) assay. Results were expressed as mean % cell adhesion of the control±1SD (n=3).
(§2) Chymotryptic/tryptic activity was assessed by monitoring the release of 7-amino-4-methylcoumarin (AMC) from Suc-Ala-Ala-Pro-Phe-AMC (chymotryptic) and Tosyl-Gly-Pro-Arg-AMC (tryptic). 50 μl of each fraction was incubated with 150 μl of substrate (5 μM) diluted in PBS. Samples were incubated at 37° C. for 30 minutes after which the fluorescence was measured (excitation 365 nm, emission detection 465 nm) using a Dynex MFX microplate fluorimeter. Proteolytic activity is expressed as the number of fluorescence units emitted over 30 minutes following the deduction of a time zero reading.

[2] = test system: fibroblasts; assay: Fibroblast adhesion to fibronectin-coated surface (ATP assay); format: cell-based; settings: for cell adhesion: 1.6 μg/ml commercial trypsin
Description: as §1
The present inventors undertook a further experiment to compare the effect of the ES chymotrypsin with a commercially available bovine chymotrypsin. The effect of ES upon fibroblast adhesion to fibronectin was therefore compared with commercially available preparations of trypsin and chymotrypsin. This was achieved by seeding fibroblasts upon a fibronectin-coated surface in the presence of various concentrations of ES, commercial trypsin or commercial chymotrypsin. […] An adenosine triphosphate (ATP) assay was then applied in order to quantify the relative numbers of cells remaining upon the surface according to the concentration of ATP detected.

[3] = test system: ES; assay: ES activity after incubation with proteinase inhibitors; parameters: species or system Lucilia sericata
[4] = Chymotryptic activity, release of AMC from fluorescent peptide substrate; format: biochemical
Description: as §1, §2

[5] = 0.1 μg/ml commercial chymotrypsin
[6] = 0.2 μg/ml commercial chymotrypsin

Molecule: trypsin [commercial trypsin]
- activity against trypsin-specific substrate relative to ES [1]: 103.2 % of the activity of ES
- cell adhesion ([2]; 24 hours incubation): 34.9 % of the control
- cell adhesion ([2]; 48 hours incubation): 24.7 % of the control

Molecule: N=C(N)c1ccc(CS(=O)(=O)F)cc1 [APMSF, 4-(amidinophenyl) methane sulphonyl fluoride]
- tissue remodelling and regeneration properties of the ES after incubation with inhibitor [3]: not lost/inhibited

Molecule: O=S(=O)(F)Cc1ccccc1 [PMSF, phenyl methanesulphonyl fluoride]
- tissue remodelling and regeneration properties of the ES after incubation with inhibitor [3]: lost or inhibited

Molecule: chymotrypsin [commercial chymotrypsin]
- activity against chymotrypsin-specific substrate relative to ES [4, 5]: 94.1 % of the activity of 5 μg/ml ES
- activity against chymotrypsin-specific substrate relative to ES [4, 6]: 204.9 % of the activity of 5 μg/ml ES
- fibroblast adhesion [2, 5]: no ability to modify fibroblast adhesion
- fibroblast adhesion [2, 6]: no effect upon fibroblast adhesion

B1: Soybean Trypsin Inhibitor (protein, UniProt P01070 25-205, looked up)
Trypsin inhibitor A: DFVLDNEGNPLENGGTYYILSDITAFGGIRAAPTGNERCPLTVVQSRNELDKGIGTIISSPYRIRFIAEGHPLSLKFDSFAVIMLCVGIPTEWSVVEDLPEGPAVKIGENKDAMDGWFRLERVSDDEFNNYKLVFCPQQAEDDKCGDIGISIDHDDGTRRLVVSKNKPLVVQFQKLDKESL
- ability of ES to enhance fibroblast migration and degrade extra-cellular matrix proteins after incubation with inhibitor [3]: removes the ability of the ES to enhance fibroblast migration and its ability to degrade extra-cellular matrix proteins
